Assays:
[1] = Cmax in CD-1 mouse large intestine at 10 mg/kg, iv after 10 to 1440 mins by LC/MS analysis; type: ADME, organism-based; parameters: dose 10 mg/kg, route intravenous
[2] = Tmax in CD-1 mouse large intestine at 10 mg/kg, ip after 10 to 1440 mins by LC/MS analysis; type: ADME, organism-based
[3] = Volume of distribution in CD-1 mouse by LC-MS/MS analysis; type: ADME; conditions: in vivo
[4] = Cmax in CD-1 mouse large intestine at 10 mg/kg, ip after 10 to 1440 mins by LC/MS analysis; type: ADME, organism-based; parameters: dose 10 mg/kg, route intraperitoneal
[5] = AUClast in CD-1 mouse Large intestine at 10 mg/kg, iv after 10 to 1440 mins by LC/MS analysis; type: ADME, organism-based; conditions: in vivo
[6] = AUClast in CD-1 mouse Large intestine at 10 mg/kg, ip after 10 to 1440 mins by LC/MS analysis; type: ADME, organism-based; conditions: in vivo
[7] = Tmax in CD-1 mouse large intestine at 10 mg/kg, iv after 10 to 1440 mins by LC/MS analysis; type: ADME, organism-based
[8] = Ratio of drug level in lung to plasma of CD-1 mouse at 5 mg/kg, iv; type: ADME, organism-based
[9] = Cmax in CD-1 mouse large intestine at 20 mg/kg, po after 10 to 1440 mins by LC/MS analysis; type: ADME, organism-based; parameters: dose 20 mg/kg, route oral
[10] = Cmax in CD-1 mouse large intestine at 5 mg/kg, iv after 10 to 1440 mins by LC/MS analysis; type: ADME, organism-based; parameters: dose 5 mg/kg, route intravenous
[11] = Tmax in CD-1 mouse large intestine at 5 mg/kg, iv after 10 to 1440 mins by LC/MS analysis; type: ADME, organism-based
[12] = Tmax in CD-1 mouse large intestine at 20 mg/kg, po after 10 to 1440 mins by LC/MS analysis; type: ADME, organism-based
[13] = AUClast in CD-1 mouse Large intestine at 5 mg/kg, iv after 10 to 1440 mins by LC/MS analysis; type: ADME, organism-based; conditions: in vivo
[14] = AUClast in CD-1 mouse Large intestine at 20 mg/kg, po after 10 to 1440 mins by LC/MS analysis; type: ADME, organism-based; conditions: in vivo

| Cmax [1] [ng/g] | Tmax [2] [min] | Vd [3] [L/kg] | Cmax [4] [ng/g] | AUClast [5] [ng·min/g] | AUClast [6] [ng·min/g] | Tmax [7] [min] | Kp [8] | Cmax [9] [ng/g] | Cmax [10] [ng/g] | Tmax [11] [min] | Tmax [12] [min] | AUClast [13] [ng·min/g] | AUClast [14] [ng·min/g] | SMILES |
| --- | --- | --- | --- | --- | --- | --- | --- | --- | --- | --- | --- | --- | --- | --- |
| 2970 | 10 | 5.87 to 63 | 5750 | 559037 | 633289 | 10 |  |  |  |  |  |  |  | C#CCC1CCN(C2CCN(S(=O)(=O)c3ccc(Br)cc3)CC2)CC1 |
| 1410 |  | 5.87 to 63 |  | 262874 |  |  |  |  |  |  |  |  |  | CC1CCN(C2CCN(S(=O)(=O)c3ccc(Cl)cc3)CC2)CC1 |
|  | 10 |  | 10700 |  | 737709 |  |  |  |  |  |  |  |  | COc1ccc(S(=O)(=O)N2CCC(N3CCC(C)CC3)CC2)cc1 |
|  | 10 | 5.87 to 63 | 10100 |  | 790425 |  | 5.7 | 3250 | 1820 | 10 | 10 | 511878 | 890969 | CC1CCN(C2CCN(S(=O)(=O)c3ccc(OC(F)F)cc3)CC2)CC1 |

Source: ChEMBL document CHEMBL4396877, “Design and Synthesis of TASIN Analogues Specifically Targeting Colorectal Cancer Cell Lines with Mutant Adenomatous Polyposis Coli (APC)” (J Med Chem, 2019)
